Data taken from patent US12071425B2 (Genentech, Inc., priority 2018, dated 2024).
Structures can show the parent of a compound that is named as a salt.

biological target: kinase domain of IRE1 alpha (His-tagged kinase dead construct KR, AA G547-L977, D688N) (Homo sapiens (Human), UniProt O75460, D688N); assay: IRE1α TR-FRET competition binding assay; settings: competition with Kinase Tracer 236, 0.1 μM; one hour at room temperature
Experimental: To determine the affinity of compound binding to the kinase domain of IRE1 alpha, a Time Resolved Fluorescence Resonance Energy Transfer (TR-FRET) competition assay was used. A His-tagged IRE1 alpha kinase dead construct containing the kinase and RNase domains (KR, AA G547-L977, D688N) was expressed in Sf9 insect cells. The purified protein (final concentration 0.006 μM micromolar) was pre-incubated with anti-His Europium labeled antibody (Life Technologies PV5596, final concentration 0.002 μM micromolar) for one hour at 4° C. in 1X TR-FRET Assay Buffer (50 mM HEPES, pH 7.5.10 mM MgCl2, 0.083 mM Brij 35, 1 mM DTT, and 0.1% bovine gamma globulin) prior to addition to test compounds. A fluorescent labeled probe based on an ATP competitive inhibitor (Kinase Tracer 236, Life Technologies PV5592) is added to a final concentration of 0.1 μM (micromolar). Reactions were carried out for one hour at room temperature in a final volume of 20 μL (microliter) in 384 well white ProxiPlates (Perkin Elmer 6008289). Binding of the tracer to the IRE1 protein alpha was detected in an Envision instrument (PerkinElmer) equipped with a TRF laser option and a LANCE/Delfia Dual/Bias D400/D630 mirror (Ex 347 nm, 1st Em 665 nm, 2nd Em 615 nm).
Exemplary compounds in Table A1 were tested in the IRE1α binding assays.

kinase domain of IRE1 alpha (His-tagged kinase dead construct KR, AA G547-L977, D688N), sequence (O75460 547-977 D688N): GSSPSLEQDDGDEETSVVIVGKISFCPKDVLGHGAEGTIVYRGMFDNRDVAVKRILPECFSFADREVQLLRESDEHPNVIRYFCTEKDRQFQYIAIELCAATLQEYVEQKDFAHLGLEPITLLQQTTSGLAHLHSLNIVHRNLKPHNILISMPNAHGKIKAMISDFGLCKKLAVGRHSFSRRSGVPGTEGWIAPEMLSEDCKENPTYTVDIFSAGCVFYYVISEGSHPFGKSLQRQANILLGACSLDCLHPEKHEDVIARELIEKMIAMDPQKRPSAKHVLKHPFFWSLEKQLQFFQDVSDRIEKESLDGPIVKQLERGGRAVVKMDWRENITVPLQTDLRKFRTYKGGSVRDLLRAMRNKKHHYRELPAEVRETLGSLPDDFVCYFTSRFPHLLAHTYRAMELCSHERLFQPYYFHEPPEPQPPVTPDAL

Compound	IC50
O=C(Nc1ccc(Oc2ncccc2-c2ccnc(N[C@H]3CCCNC3)n2)c(F)c1F)C1CC12CC2 (single isomer, unassigned) [Compound 150, hydrochloride]	300 nM
O=S(=O)(Cc1ccccc1)Nc1ccc(Oc2ncccc2-c2ccnc(NC34CNCC3C4)n2)c(F)c1F (single isomer, unassigned) [Compound 186, N-(4-((3-(2-(3-Azabicyclo[3.1.0]hexan-5-ylamino)pyrimidin-4-yl)-2-pyridyl)oxy)-2,3-difluoro-phenyl)-1-phenyl-methanesulfonamide]	20 nM
O=S(=O)(Cc1ccccc1)Nc1c(F)cc(Oc2ncccc2-c2ccnc(CC3CCCNC3)n2)c(F)c1F (single isomer, unassigned) [Compound 198, 1-Phenyl-N-(2,3,6-trifluoro-4-((3-(2-(3-piperidylmethyl)pyrimidin-4-yl)-2-pyridyl)oxy)phenyl)methanesulfonamide]	1300 nM
O=S(=O)(Cc1ccccc1)Nc1c(F)cc(Oc2ncccc2-c2ccnc(CC3CCCNC3)n2)c(F)c1F (single isomer, unassigned) [Compound 199, 1-Phenyl-N-(2,3,6-trifluoro-4-((3-(2-(3-piperidylmethyl)pyrimidin-4-yl)-2-pyridyl)oxy)phenyl)methanesulfonamide]	110 nM
OC(CNc1cccc(Oc2ncccc2-c2ccnc(N[C@H]3CCCNC3)n2)c1F)C(F)(F)F (single isomer, unassigned) [Compound 200]	530 nM
OC(CNc1cccc(Oc2ncccc2-c2ccnc(N[C@H]3CCCNC3)n2)c1F)C(F)(F)F (single isomer, unassigned) [Compound 201]	210 nM
CCC1CCN(c2ccc(Oc3ncccc3-c3ccnc(N[C@H]4CCCNC4)n3)c(F)c2F)C1=O (single isomer, unassigned) [Compound 248]	45 nM
CCC1CCN(c2ccc(Oc3ncccc3-c3ccnc(N[C@H]4CCCNC4)n3)c(F)c2F)C1=O (single isomer, unassigned) [Compound 249]	160 nM
O=S(=O)(Cc1ccccc1)Nc1c(F)cc(Oc2ncccc2-c2ccnc(NC3CNCC(CF)C3)n2)c(F)c1F (single isomer, unassigned) [Compound 277, 1-Phenyl-N-(2,3,6-trifluoro-4-((3-(2-((5-(fluoromethyl)piperidin-3-yl)amino)pyrimidin-4-yl)pyridin-2-yl)oxy)phenyl)methanesulfonamide]	27 nM
CC1(CF)CNCC(Nc2nccc(-c3cccnc3Oc3cc(F)c(NS(=O)(=O)Cc4ccccc4)c(F)c3F)n2)C1 (single isomer, unassigned) [Compound 295, 1-Phenyl-N-(2,3,6-trifluoro-4-((3-(2-((5-(fluoromethyl)-5-methylpiperidin-3-yl)amino)pyrimidin-4-yl)pyridin-2-yl)oxy)phenyl)methanesulfonamide]	41 nM
O=S(=O)(Cc1ccccc1)Nc1c(F)cc(Oc2ncccc2-c2ccnc(NC3CNCC(C(F)F)C3)n2)c(F)c1F (single isomer, unassigned) [Compound 303, N-(4-((3-(2-((5-(Difluoromethyl)piperidin-3-yl)amino)pyrimidin-4-yl)pyridin-2-yl)oxy)-2,3,6-trifluorophenyl)-1-phenylmethanesulfonamide]	35 nM
CN(C)C1CCC(Nc2nccc(-c3cccnc3Oc3cc(F)c(NS(=O)(=O)Cc4ccccc4)c(F)c3F)n2)CC1F (single isomer, unassigned) [Compound 306, N-(4-((3-(2-((4-(Dimethylamino)-3-fluorocyclohexyl)amino)pyrimidin-4-yl)pyridin-2-yl)oxy)-2,3,6-trifluorophenyl)-1-phenylmethanesulfonamide]	43 nM

Molecules with a lower IC50, results first:

IC50	Compound
9.4 nM	O=S(=O)(Cc1ccccc1)Nc1ccc(Oc2ncccc2-c2ccnc(NC34CNCC3C4)n2)c(F)c1F (single isomer, unassigned) [Compound 185, N-(4-((3-(2-(3-Azabicyclo[3.1.0]hexan-5-ylamino)pyrimidin-4-yl)-2-pyridyl)oxy)-2,3-difluoro-phenyl)-1-phenyl-methanesulfonamide]
8.9 nM	CC(F)(F)C1CNCC(Nc2nccc(-c3cccnc3Oc3cc(F)c(NS(=O)(=O)Cc4ccccc4)c(F)c3F)n2)C1 (racemic) [Compound 337, N-(4-((3-(2-((5-(1,1-Difluoroethyl)piperidin-3-yl)amino)pyrimidin-4-yl)pyridin-2-yl)oxy)-2,3,6-trifluorophenyl)-1-phenylmethanesulfonamide hydrochloride]
8.7 nM	O=S(=O)(Cc1ccccc1)Nc1c(F)cc(Oc2ncccc2-c2ccnc(NC3CNCC4(C3)CC4(F)F)n2)c(F)c1F (single isomer, unassigned) [Compound 300, N-(4-((3-(2-((1,1-Difluoro-5-azaspiro[2.5]octan-7-yl)amino)pyrimidin-4-yl)pyridin-2-yl)oxy)-2,3,6-trifluorophenyl)-1-phenylmethanesulfonamide]
1.8 nM	O=S(=O)(Cc1ccccc1)Nc1c(F)cc(Oc2ncccc2-c2ccnc(NC3CNCC4(C3)CC4(F)F)n2)c(F)c1F (single isomer, unassigned) [Compound 298, N-(4-((3-(2-((1,1-Difluoro-5-azaspiro[2.5]octan-7-yl)amino)pyrimidin-4-yl)pyridin-2-yl)oxy)-2,3,6-trifluorophenyl)-1-phenylmethanesulfonamide]
1.6 nM	O=S(=O)(CC1CCC1(F)F)Nc1c(F)cc(Oc2ncccc2-c2ccnc(N[C@@H]3CNC[C@@H](F)C3)n2)c(F)c1F (single isomer, unassigned) [Compound 264]
1.5 nM	O=S(=O)(Cc1ccccc1)Nc1c(F)cc(Oc2ncccc2-c2ccnc(NC3CC4CCCN(C4)C3)n2)c(F)c1F (single isomer, unassigned) [Compound 287, N-(4-((3-(2-((1-azabicyclo[3.3.1]nonan-3-yl)amino)pyrimidin-4-yl)pyridin-2-yl)oxy)-2,3,6-trifluorophenyl)-1-phenylmethanesulfonamide hydrochloride]
1.4 nM	O=S(=O)(CC1CCC1(F)F)Nc1c(F)cc(Oc2ncccc2-c2ccnc(N[C@@H]3CNC[C@@H](F)C3)n2)c(F)c1F (single isomer, unassigned) [Compound 265]
1.1 nM	O=S(=O)(Cc1ccccc1)Nc1c(F)cc(Oc2ncccc2-c2ccnc(NC3CC4CCCN(C4)C3)n2)c(F)c1F (single isomer, unassigned) [Compound 288, N-(4-((3-(2-((1-azabicyclo[3.3.1]nonan-3-yl)amino)pyrimidin-4-yl)pyridin-2-yl)oxy)-2,3,6-trifluorophenyl)-1-phenylmethanesulfonamide]
0.78 nM	O=S(=O)(Cc1ccccc1)Nc1c(F)cc(Oc2ncccc2-c2ccnc(NC3CNCC(CF)C3)n2)c(F)c1F (single isomer, unassigned) [Compound 278, 1-Phenyl-N-(2,3,6-trifluoro-4-((3-(2-((5-(fluoromethyl)piperidin-3-yl)amino)pyrimidin-4-yl)pyridin-2-yl)oxy)phenyl)methanesulfonamide]
0.59 nM	CC1(CF)CNCC(Nc2nccc(-c3cccnc3Oc3cc(F)c(NS(=O)(=O)Cc4ccccc4)c(F)c3F)n2)C1 (single isomer, unassigned) [Compound 294, 1-Phenyl-N-(2,3,6-trifluoro-4-((3-(2-((5-(fluoromethyl)-5-methylpiperidin-3-yl)amino)pyrimidin-4-yl)pyridin-2-yl)oxy)phenyl)methanesulfonamide]
0.44 nM	O=S(=O)(Cc1ccccc1)Nc1c(F)cc(Oc2ncccc2-c2ccnc(NC3CNCC(C(F)F)C3)n2)c(F)c1F (single isomer, unassigned) [Compound 302, N-(4-((3-(2-((5-(Difluoromethyl)piperidin-3-yl)amino)pyrimidin-4-yl)pyridin-2-yl)oxy)-2,3,6-trifluorophenyl)-1-phenylmethanesulfonamide]
0.38 nM	O=S(=O)(Cc1ccccc1)Nc1c(F)cc(Oc2ncccc2-c2ccnc(NC3CNCC4(C3)CC4(F)F)n2)c(F)c1F (single isomer, unassigned) [Compound 299, N-(4-((3-(2-((1,1-Difluoro-5-azaspiro[2.5]octan-7-yl)amino)pyrimidin-4-yl)pyridin-2-yl)oxy)-2,3,6-trifluorophenyl)-1-phenylmethanesulfonamide]
0.36 nM	O=S(=O)(Cc1ccccc1)Nc1c(F)cc(Oc2ncccc2-c2ccnc(NC3CNCC4(C3)CC4(F)F)n2)c(F)c1F (single isomer, unassigned) [Compound 301, N-(4-((3-(2-((1,1-Difluoro-5-azaspiro[2.5]octan-7-yl)amino)pyrimidin-4-yl)pyridin-2-yl)oxy)-2,3,6-trifluorophenyl)-1-phenylmethanesulfonamide]
0.31 nM	CN(C)C1CCC(Nc2nccc(-c3cccnc3Oc3cc(F)c(NS(=O)(=O)Cc4ccccc4)c(F)c3F)n2)CC1F (single isomer, unassigned) [Compound 307, N-(4-((3-(2-((4-(Dimethylamino)-3-fluorocyclohexyl)amino)pyrimidin-4-yl)pyridin-2-yl)oxy)-2,3,6-trifluorophenyl)-1-phenylmethanesulfonamide hydrochloride]
